# Test results taken from patent US10226477B2, “Composition for preventing, improving or treating postmenopausal osteoporosis comprising scopolin” (DONG WOO DANG CO., LTD, priority 2016, dated 2019).
# “Also recorded” adds a separate entry of the source.
# Experiments:
# [1] = test system: ddY female ovariectomized (OVX)-mouse; assay: Bone mineral density (PIXImus) and femoral micro-CT in ovariectomized menopausal mouse model; assay type: in vivo; conditions: oral, 12 weeks, scopolin 20 and 40 mg/kg/day, SrCl2 20 mg/kg/day; for decrease in the bone mineral density caused by the menopause: p<0.05 vs. OVX
# Experimental: (§1) To evaluate in vivo efficacy of scopolin, a 10-week-old ddY female ovariectomized (OVX)-mouse was used a menopausal animal model (ovariectomy was performed on the 8-week-old mouse, and the mouse was additionally raised for 2 weeks). Regarding control groups, a Shame mouse that was subjected to laparotomy, but was not subjected to ovariectomy, (normal control group), and an OVX mouse to which physiological saline was added (negative control group) were used, and in addition, a strontium chloride (SrCl2) mouse in which 20 mg/kg/day of SrCl2, which is a compound having an effect in enhancing bone mineral density, was administered by oral injection to an OVX mouse was used as a positive control group in the test for bone mineral density improvement efficacy. Here, an experimental group was prepared by administering scopolin at a dose of 20 mg/kg/day and 40 mg/kg/day by oral injection. The 10-week-old sham-operated mouse and the ddY OVX-mouse were purchased at Central Lab. Animal Inc., and then, were moved to a clean animal breeding room after spending 1 week of purification period in the laboratory animal quarantine room. These mice were individually weighed to be classified into experimental groups without a statistically significant difference in weight. Scopolin used in the experiment was dissolved in 1% DMSO aqueous solution to be prepared as a test solution. In order to bring these mice in the laboratory animal center, a radiation irradiation company, SOYAGREENTEC Inc., was commissioned for sterilization operations using gamma irradiation.
# At the beginning of the animal experiment, a PIXImus bone densitometer was used to measure initial bone mineral density (BMD) of the mice. The mice were anesthetized by injecting 50 μl of a mixed anesthetic of zoletil and rompun (a mixture of zoletil and rompun at a ratio of 1:2 was diluted with physiological saline at a ratio of 2:3), and then, were fixed to a bone mineral density measuring frame to measure bone mineral density. After 6 weeks and 12 weeks of the injection of scopolin to the mice, the bone mineral density of the mice was measured by using the PIXImus bone densitometer. After the completion of the experiment during 12 weeks, blood sampling and removal of femoral bone were performed, and micro-CT was taken thereon. In the micro-CT images, bone volume ratios (BV ratios, %), trabecular thickness (Tb.Th), trabecular number (Tb.N), and trabecular spacing (Tb.Sp) were numeralized and analyzed.
# [2] = test system: ddY female ovariectomized (OVX)-mouse; assay: Serum OPG and RANKL levels by ELISA in ovariectomized menopausal mouse model; assay type: in vivo; conditions: oral, 12 weeks, scopolin 20 and 40 mg/kg/day, SrCl2 20 mg/kg/day; for decrease in the serum level of OPG (bone formation marker) / increase in the serum level of RANKL (bone resorption marker): p<0.05 vs. OVX
# Experimental: as §1
# Next, the changes of blood metabolism markers in the blood were examined. After 12 weeks of the experiment performed on the postmenopausal mouse model, the blood sampling was performed thereon, and serum samples were collected therefrom. The serum protein levels of osteoprotegerin (OPG), which is a bone formation marker, and receptor activator of nuclear factor-kappa B ligand (RANKL), which is a bone resorption marker, were analyzed by ELISA. […] However, in the experimental groups to which scopolin was administered at a dose of 20 mg/kg/day and 40 mg/kg/day for 12 weeks, it was confirmed that the decrease in the level of OPG, which is the bone formation marker in the blood, the increase in the level of RANKL, which is the bone resorption marker, and the decrease in the OPG/RANKL ratios were inhibited (see FIGS. 9A, 9B, and 9C). Such results were similar with those obtained by the SrCl2 mouse which is the positive control group. In addition, in the statistical analysis, the significance of the efficacy of scopolin was also confirmed (*: p<0.05 vs. OVX negative control group).
# MC3T3-E1 cells [3] = assay: Cytotoxicity of scopolin by cell proliferation analysis (EZ-Cytox, water-soluble tetrazolium salt); assay type: cell-based; conditions: 1 μg/ml, 5 μg/ml and 10 μg/ml, cultured 2 days, vs. physiological saline control
# Experimental: Cytotoxicity of scopolin was evaluated by cell proliferation analysis using an EZ-Cytox Enhanced Cell Viability Assay Kit using a water-soluble tetrazolium salt. In detail, MC3T3-E1 cells (3×10^3 cells/well), which are osteoblasts, were cultured in an alpha-minimum essential medium (α-MEM) supplemented with 10% bovine fetus serum, 1 mM sodium pyruvate, 100 unit/L penicillin, and 100 mg/L streptomycin at a temperature of 37° C. under conditions provided with 5% CO2, and then, the cells were treated with scopolin at three different concentrations (1 μg/ml, 5 μg/ml, and 10 μg/ml) and cultured for 2 days. Next, the tetrazolium salt was applied to each of the cultured cells and a sample, followed by being cultured at a temperature of 37° C. for 2 hours, and then, absorbance thereof was measured at a wavelength of 450 nm.
# MC3T3-E1 cells [4] = assay: Osteoblast differentiation: alkaline phosphatase (ALP) activity; assay type: cell-based
# Experimental: The efficacy of scopolin on the differentiation of osteoblasts was evaluated by using the MC3T3-E1 cells. Ascorbic acid (50 μg/ml) and β-glycerophosphate (10 mM), which are osteoblast inducers, were added to the MC3T3-E1 cells, to thereby induce the differentiation for 3 days. Then, the resulting cells were treated with scopolin. Scopolin was dissolved in 1% dimethyl sulfoxide (DMSO) aqueous solution, and then, was applied to the MC3T3-E1 cells at concentrations of 1 μg/ml (Sco1), 5 μg/ml (Sco5), and 10 μg/ml (Sco10). The resulting cells were cultured for additional 48 hours. As a control group, cells were cultured in the same amount of 1% DMSO aqueous solution in which scopolin was not treated. To determine the efficacy of scopolin on the differentiation of osteoblasts, the activity of alkaline phosphatase (ALP) was measured. In detail, the cells that were washed using physiological saline and dissolved using a lytic agent was treated with p-nitrophenyl phosphate, which is a substrate of ALP, and then, cultured at a temperature of 37° C. for 1 hour. Subsequently, 0.5N NaOH, which is a reaction terminating solution, was added the cultured cells, and then, absorbance thereof was measured at a wavelength of 405 nm.
# MC3T3-E1 cells [5] = assay: Osteoblast differentiation: ALP staining; assay type: cell-based; conditions: 5 μg/ml
# MC3T3-E1 cells [6] = assay: Mineralization of osteoblasts by Alizarin Red S staining; assay type: cell-based; conditions: 5 μg/ml
# Experimental: The mineralization of osteoblasts was analyzed by an Alizarlin red S staining method after experimental groups and a control group were each treated with 5 μg/ml of scopolin and cultured. […] That is, it was confirmed that scopolin was effective in stimulating the differentiation of osteoblasts.
SMILES,increase in trabecular spacing (Tb.Sp) [1],low density of the bone structure (micro-CT images) [1],reduction in BV ratios (bone volume ratio) [1],reduction in trabecular number (Tb.N) [1],reduction in trabecular thickness (Tb.Th) [1],decrease in the bone mineral density caused by the menopause [1],decrease in the OPG/RANKL ratios [2],decrease in the serum level of OPG (bone formation marker) [2],increase in the serum level of RANKL (bone resorption marker) [2],effect on the proliferation of the MC3T3-E1 cells (cytotoxicity) (MC3T3-E1 cells [3]),"differentiation of osteoblasts (ALP activity) (MC3T3-E1 cells [4]; 5 μg/ml or 10 μg/ml, 48 hours after 3 days induction, p<0.05 vs. negative control)","stimulating osteoblast differentiation (overall conclusion) (MC3T3-E1 cells [4]; MC3T3-E1 cells, 1-10 μg/ml)",ALP staining (MC3T3-E1 cells [5]),mineralization (Alizarin Red S staining) (MC3T3-E1 cells [6])
"[Cl-].[Cl-].[Sr+2] [SrCl2, strontium chloride, reference compound]",similar,similar,similar,similar,similar,similar,similar,similar,similar,–,–,–,–,–
COc1cc2ccc(=O)oc2cc1O[C@@H]1O[C@H](CO)[C@@H](O)[C@H](O)[C@H]1O [scopolin],inhibited,significantly inhibits; also recorded: inhibited,inhibited,inhibited,inhibited,significantly inhibits; also recorded: inhibited,inhibited,significantly inhibits; also recorded: inhibited,significantly inhibits; also recorded: inhibited,not toxic; also recorded: no adverse effect,statistically significantly increased,significant effect; also recorded: effective,increased,increased
